From patent publication EP0375414B1, “Substituted guanidine and amidine compounds, their production and fungicidal use” (DowElanco, priority 1988, dated 1990) come the findings set out here.

The test system of data set [1] is Erysiphe graminis Hordei. Briefly: In vivo screen, Erysiphe graminis Hordei on barley. The note with it: 400 ppm sprayed to run off, inoculated 24 hours later, barley at 1 leaf stage, scored after 7 days, percent control vs acetone-water control plants. On the set-up: species or system Barley cv. Golden Promise. The method, then: Barley cv. Golden Promise is used as the host plant. Seeds are sown 8 per 3 in. […] After a week symptoms are recorded. […] The percent control is then recorded.

Data set [2] relates to Puccinia recondita. Briefly: In vivo screen, Puccinia recondita on wheat. Set-up: species or system Wheat cv. Tonic. The note with it: 400 ppm sprayed to run off, inoculated 24 hours later, wheat seedlings, incubated 4 days, percent control vs acetone-water control plants. How it is done: Wheat cv. Tonic is used as the host plant. […] The tray is 60 cm x 30 cm.
Percent control is then recorded.

Data set [3] deals with Host Plants. In words: Phytotoxicity to host plants in the in vivo screen. The note with it: 400 ppm sprayed to run off, host plants of the in vivo screen.
Method: For each compound 3 replicate plants per pathogen at the 1 leaf stage are sprayed to run off. The plants are allowed to dry at room temperature for 24 hours prior to inoculation.
Untreated control plants and plants sprayed with 10 percent acetone-water or water alone (as required) are included for each pathogen.
Barley cv. Golden Promise is used as the host plant. Seeds are sown 8 per 3 in. (7.5 cm) pot and allowed to germinate and the plants are treated when they are approximately 2 weeks old. Spores are blown onto the test plants from the stock plants, which are then incubated at 20°C, relative humidity 70 percent for 7 days. After a week symptoms are recorded. The percent infection is scored from 3 replicate plants and expressed as a percent of the infection on the acetone-water control plants. The percent control is then recorded.
Wheat cv. Tonic is used as the host plant. Seeds are sown 1 cm deep in 4 rows per plastic tray. The tray is 60 cm x 30 cm. Seedlings grown to the 1-2 leaf stage are then inoculated. Into 100 mL of distilled water is placed 0.05 g of uredospores with a melting agent. This solution is sprayed onto the seedlings leaving a fine coverage on the leaves. The plants are then incubated with 100 percent relative humidity at 15-20°C for 4 days.

On to `CC(=O)O.C[C@H]1[C@@H](c2ccc(C(C)(C)C)cc2)CCN1C1=NCCCN1` (relative stereo) [Example 1, Cis N-(tetrahydropyrimidin-2-yl)-2-methyl-3-(4-t-butylphenyl)pyrrolidinium acetate], for which, in data set [1], the “Percent Efficacy, Erysiphe graminis” value was 100%. Moreover, the “Percent Efficacy, Puccinia recondita” value in data set [2] turned out to be 0%. For the same compound, in data set [3], the “Percent Phytotoxicity to Host Plants” value is given as 0%.
With `CC(=O)O.C[C@H]1[C@H](c2ccc(C(C)(C)C)cc2)CCN1C1=NCCCN1` (relative stereo) [Example 2, trans N-(tetrahydropyrimidin-2-yl)-2-methyl-3-(4-t-butylphenyl)pyrrolidine acetate], the “Percent Efficacy, Erysiphe graminis” value in data set [1] is reported as 83%. The “Percent Efficacy, Puccinia recondita” value in data set [2] was determined as 0%. Also, the “Percent Phytotoxicity to Host Plants” value in data set [3] is recorded as 0%.
On to `C[C@H]1[C@@H](c2ccc(C(C)(C)C)cc2)CCN1C1=NCCCN1.Cl` (relative stereo) [Example 3, Cis N-(tetrahydropyrimidin-2-yl)-2-methyl-3--(4-t-butylphenyl)pyrrolidinium chloride], for which the “Percent Efficacy, Erysiphe graminis” value in data set [1] is 14%. Also, in data set [2], the “Percent Efficacy, Puccinia recondita” value stood at 100%.
In the same order, the values of `C[C@H]1[C@H](c2ccc(C(C)(C)C)cc2)CCN1C1=NCCCN1.Cl` (relative stereo) [Example 4, Trans N-(tetrahydropyrimidin-2-yl)-2-methyl,3-(4-t-butylphenyl)pyrrolidinium chloride] are 87% and 66%.
For `CC1CC(C)NC(N2CC[C@H](c3ccc(C(C)(C)C)cc3)[C@@H]2C)=N1.Cl` (relative stereo) [Example 5, Cis N-(4,6-dimethyltetrahydropyrimidin-2-yl)-2-methyl-3-(4-t-butylphenyl)pyrrolidinium chloride], the “Percent Efficacy, Erysiphe graminis” value in data set [1] amounted to 52%. The “Percent Efficacy, Puccinia recondita” value in data set [2] is 100%. The “Percent Phytotoxicity to Host Plants” value in data set [3] is 0%.
In the same order, the values of `CC1CC(C)NC(N2CC[C@@H](c3ccc(C(C)(C)C)cc3)[C@@H]2C)=N1.Cl` (relative stereo) [Example 6, Trans N-(4,6-dimethyltetrahydropyrimidin-2-yl)-2-methyl-3-(4-t-butylphenyl)pyrrolidinium chloride] are 100%, 0% and 0%.
Regarding `CCCCCCCC[C@H]1CCN(C2=NCCCN2)[C@H]1C.Cl` (relative stereo) [Example 7, Cis N-(tetrahydropyrimidin-2-yl)-2-methyl-3-octyl pyrrolidinium chloride], the “Percent Efficacy, Erysiphe graminis” value in data set [1] came to 79%. In addition, the “Percent Efficacy, Puccinia recondita” value in data set [2] is 0%.
